From paper PMC10030390, “A phase 1 open-label study to assess the relative bioavailability of TAK-931 tablets in reference to powder-in-capsule in patients with advanced solid tumors” (Investigational New Drugs, 2022)
Several values for one entry are separate records, joined by “and”; a condition that tells them apart may be missing. Identical values can stand only once. Like-named read-outs stand apart in the source and are kept apart here.

Key:
[1] = set-up: method as in NCT02699749; settings: estimated from preliminary data, ref NCT02699749; cited from earlier work
[2] = tested on: locally advanced or metastatic solid tumors; experiment: Antitumor activity, investigator-assessed disease response (RECIST v1.1); type: in vivo, human
Description: The primary endpoints were the ratio of geometric means of the following PK parameters for TAK-931 tablets in reference to PIC and associated 2-sided 90% confidence intervals (CIs): maximum observed plasma concentration (Cmax), area under the plasma concentration–time curve (AUC) from time 0 to time of the last quantifiable concentration (AUClast), and the AUC from time 0 to infinity (AUCinf). Secondary endpoints were PK parameters of TAK-931 80 mg following a single-dose administration as PIC or tablet (time of first occurrence of maximum observed plasma concentration [Tmax], and terminal disposition phase half-life [T1/2z]), antitumor activity, and safety.

solid tumors = tested on: solid tumors; set-up: method as in earlier work; settings: of 24 response-evaluable patients, first-in-human phase 1 study; cited from earlier work

Compound: Cc1[nH]ncc1-c1cc2nc([C@@H]3CC4CCN3CC4)[nH]c(=O)c2s1 [TAK-931]
- On-study deaths (PIC/Tablet sequence, n = 12): 0 n (%)
- On-study deaths (Tablet/PIC sequence, n = 8): 1 (13) n (%)
- Dose modification: Dose increased (human, in vivo): 0 n (%)
- Serious TEAEs: Not related (human, in vivo): 2 (25) n (%) and 2 (17) n (%) and 4 (20) n (%)
- TEAE Alopecia, Any-grade (human, in vivo): 6 (30) n (%)
- TEAE Constipation, Any-grade (human, in vivo): 8 (40) n (%)
- TEAE Decreased appetite, Any-grade (human, in vivo): 4 (20) n (%)
- TEAE Disturbance in attention, Any-grade (human, in vivo): 2 (10) n (%)
- TEAE Dyspnea, Any-grade (human, in vivo): 3 (15) n (%)
- TEAE Dyspnea, Grade ≥ 3 (human, in vivo): 1 (5) n (%)
- TEAE Fatigue, Any-grade (human, in vivo): 13 (65) n (%)
- TEAE Fatigue, Grade ≥ 3 (human, in vivo): 1 (5) n (%)
- TEAE Headache, Any-grade (human, in vivo): 3 (15) n (%)
- TEAE Hypertension, Any-grade (human, in vivo): 3 (15) n (%)
- TEAE Hypertension, Grade ≥ 3 (human, in vivo): 1 (5) n (%)
- TEAE Hypokalemia, Any-grade (human, in vivo): 1 (5) n (%)
- TEAE Hypokalemia, Grade ≥ 3 (human, in vivo): 1 (5) n (%)
- TEAE Ileus, Any-grade (human, in vivo): 2 (10) n (%)
- TEAE Ileus, Grade ≥ 3 (human, in vivo): 2 (10) n (%)
- TEAE Nausea, Any-grade (human, in vivo): 8 (40) n (%)
- TEAE Neutropenia, Any-grade (human, in vivo): 2 (10) n (%)
- TEAE Neutropenia, Grade ≥ 3 (human, in vivo): 2 (10) n (%)
- TEAE Pneumonia, Any-grade (human, in vivo): 1 (5) n (%)
- TEAE Pneumonia, Grade ≥ 3 (human, in vivo): 1 (5) n (%)
- TEAE Rectal cancer, Any-grade (human, in vivo): 1 (5) n (%)
- TEAE Rectal cancer, Grade ≥ 3 (human, in vivo): 1 (5) n (%)
- TEAE Vomiting, Any-grade (human, in vivo): 6 (30) n (%)
- TEAE Weight decrease, Any-grade (human, in vivo): 3 (15) n (%)
- patients with TEAE alopecia (human, in vivo): 30%
- patients with TEAE constipation (human, in vivo): 40%
- patients with TEAE fatigue (human, in vivo): 65%
- patients with TEAE nausea (human, in vivo): 40%
- patients with TEAE vomiting (human, in vivo): 30%
- patients with grade ≥ 3 TEAE ileus (human, in vivo): 10%
- patients with grade ≥ 3 TEAE neutropenia (human, in vivo): 10%
- patients with treatment-related TEAE alopecia (human, in vivo): 30%
- patients with treatment-related TEAE decreased appetite (human, in vivo): 20%
- patients with treatment-related TEAE fatigue (human, in vivo): 50%
- patients with treatment-related TEAE nausea (human, in vivo): 30%
- patients with treatment-related TEAE vomiting (human, in vivo): 20%
- within-patient coefficient of variation for AUC [1]: 35.0%
- within-patient coefficient of variation for Cmax [1]: 36.9%
- partial or complete responses ([2]; 19 patients evaluable for response): No partial or complete responses
- Median time to PD or death ([2]; 95% CI: 1.6–2.8): 1.9 months
- individual progression-free survival durations of patients with SD ([2]; four patients with best response SD, + = censored observation): 3.58 months and ≥ 2.23 months and 3.55 months and 4.01 months
- patients with a partial response (solid tumors): 3
- patients with prolonged SD (solid tumors): 4
